Laboratory results: paper PMC8217813, “Bridging Computational Vaccinology and Vaccine Development Through Systematic Identification, Characterization, and Downselection of Conserved and Variable Circumsporozoite Protein CD4 T Cell Epitopes From Diverse Plasmodium falciparum Strains” (Frontiers in Immunology, 2021)
Read-outs that look alike come from different tables or passages of the source. Peptide text beside a SMILES is read from it.

Assays:
HLA B*0702 = molecular target: T1, HLA B*0702 (Homo sapiens, UniProt P01889); assay: biochemical; format: binding; conditions: allele B0702; cell-free competition with fluorescently labeled control peptide, fluorescence polarization at 72 hours
T1 construct: Pure Protein, LLC (ran the assay)

HLA A*0201 = molecular target: T2, HLA A*0201 (Homo sapiens, UniProt P04439, D140Y/D185E/D98H/E176V/E277Q/G131W/G231S/I119V/I121R/I166T/I218V/L300P/L318F/N151K/N90K/P208A/P217A/Q86G/Q94H/R138H/R169H/T345S); assay: biochemical; format: binding
T2 construct: Pure Protein, LLC (ran the assay)

HLA A*0301 = molecular target: T3, HLA A*0301 (Homo sapiens, UniProt P04439); assay: In vitro class I HLA binding competition assay (fluorescence polarization); conditions: allele A0301; cell-free competition with fluorescently labeled control peptide, fluorescence polarization at 72 hours
T3 construct: Pure Protein, LLC (ran the assay)

HLA-DRB1*0701 = HLA-DRB1*0701 (Homo sapiens, UniProt P01903+P01911, A100R/A102G/A103Q/D57E/D86V/E43K/F76Y/K127E/L162R/M171V/P40G/Q125H/Q99D/R33Q/R42Y/R54Q/S133A/S66F/T210M/V115G/Y107V/Y59L/Y89S); assay: In vitro class II HLA binding competition assay
Experimental: (§1) EpiVax conducted in vitro quantification of peptide-HLA binding affinity utilizing a competition assay format per the methodology described in ([35]). Briefly, a fluorescent-labeled, high-binding reference peptide and titrating concentrations of test peptide were incubated in a 96-well plate format with limiting concentrations of class II HLA monomers in aqueous buffer for 24-hours. Post incubation, the mixtures were moved to a 96-well plate coated with anti-HLA-DR antibody to capture HLA-peptide complexes. Time-resolved fluorescence measurement of the bound labeled reference peptide complex present in each mixture were detected with a europium-linked probe via fluorescent spectrophotometry using a SpectraMax M5 system. HLA binding affinity of each test peptide was expressed as the percent inhibition of reference peptide binding. Percent inhibition values (across the test peptide titration range) were used to calculate the half maximal inhibitory concentration (IC50) of each test peptide. For these studies, test peptides were assessed using a range of final concentrations from 100,000 nM to 100 nM and all peptides were reconstituted in dimethyl sulfoxide (DMSO).

HLA-DRB1*0101 = molecular target: T4, HLA-DRB1*0101 (Homo sapiens, UniProt P01903+P01911, A100R/D57E/F55L/F60I/F76Y/I96L/L162R/M171V/P40L/Q125E/R42F/V115G/Y59C); assay: In vitro class II HLA binding competition assay
T4 construct: purchased
Experimental: as §1

HLA-DRB1*1501 = molecular target: T5, HLA-DRB1*1501 (Homo sapiens, UniProt P01903+P01911); assay: In vitro class II HLA binding competition assay
T5 construct: purchased
Experimental: as §1

HLA-DRB1*1301 = HLA-DRB1*1301 (Homo sapiens, UniProt P01903+P01911, A100E/A169T/K41T/L162R/M171V/P40S/Q125H/Q178H/Q39Y/Q99D/R42S/S66N/T262R/W38E/Y61H); assay: In vitro class II HLA binding competition assay; conditions: competition with fluorescent-labeled reference peptide, class II HLA monomers, 24-hours, test peptide 100,000 nM to 100 nM, time-resolved fluorescence
Experimental: as §1

HLA-DRB1*0401 = molecular target: T6, HLA-DRB1*0401 (Homo sapiens, UniProt P01903+P01911, A100K/A169T/F76Y/I96L/K127E/L162R/M171V/N62H/P40V/Q125Y/R42H/S133A/S149N/S66Y/V115G/V209L/W38E); assay: In vitro class II HLA binding competition assay
T6 construct: purchased
Experimental: as §1

HLA-DRB1*0801 = HLA-DRB1*0801 (Homo sapiens, UniProt P01903+P01911, A100R/A103L/A169T/D86S/F76Y/H45Y/I96F/K41T/L162R/M171V/P40S/Q125H/Q178H/Q39Y/Q99D/R218S/R42G/S66Y/V115G/W38E); assay: In vitro class II HLA binding competition assay; conditions: competition with fluorescent-labeled reference peptide, class II HLA monomers, 24-hours, test peptide 100,000 nM to 100 nM, time-resolved fluorescence
Experimental: as §1

[1] = tested on: CD4 T cells co-cultured with autologous DCs from PBMCs; format: cell-based, human
[2] = allele A0201, cell-free competition with fluorescently labeled control peptide, fluorescence polarization at 72 hours, read-out: IC50
[3] = DR1 donors N=5, positive = Stimulation Index ≥1.5-fold above baseline, ICCS, 5 µg/mL peptide
[4] = DR3 donors N=6, positive = Stimulation Index ≥1.5-fold above baseline, ICCS, 5 µg/mL peptide
[5] = DR4 donors N=10, positive = Stimulation Index ≥1.5-fold above baseline, ICCS, 5 µg/mL peptide
[6] = DR7 donors N=4, positive = Stimulation Index ≥1.5-fold above baseline, ICCS, 5 µg/mL peptide
[7] = DR8 donors N=4, positive = Stimulation Index ≥1.5-fold above baseline, ICCS, 5 µg/mL peptide
[8] = DR9 donors N=4, positive = Stimulation Index ≥1.5-fold above baseline, ICCS, 5 µg/mL peptide
[9] = DR11 donors N=4, positive = Stimulation Index ≥1.5-fold above baseline, ICCS, 5 µg/mL peptide
[10] = DR13 donors N=7, positive = Stimulation Index ≥1.5-fold above baseline, ICCS, 5 µg/mL peptide
[11] = DR15 donors N=7, positive = Stimulation Index ≥1.5-fold above baseline, ICCS, 5 µg/mL peptide

CC[C@H](C)[C@H](NC(=O)CNC(=O)[C@H](CC(N)=O)NC(=O)CNC(=O)[C@H](CS)NC(=O)[C@@H](NC(=O)[C@@H](NC(=O)[C@@H](N)CO)C(C)C)[C@@H](C)O)C(=O)N[C@@H](CCC(N)=O)C(=O)N[C@H](C(=O)O)C(C)C [Cluster 335_3D7] (H-SVTCGNGIQV-OH)
IC50 (nM) (HLA B*0702): Non-Binder
IC50 (HLA A*0201; [2]): 489 µM

CC[C@H](C)[C@H](NC(=O)[C@H](CO)NC(=O)[C@H](CO)NC(=O)[C@H](CC(N)=O)NC(=O)[C@@H](NC(=O)[C@@H](NC(=O)[C@H](CC(N)=O)NC(=O)[C@H](Cc1ccccc1)NC(=O)[C@@H](NC(=O)[C@@H](N)CO)C(C)C)C(C)C)C(C)C)C(=O)O [Cluster 376_3D7] (H-SVFNVVNSSI-OH)
IC50 (nM) (HLA B*0702): Non-Binder
IC50 (nM) (HLA A*0301): Non-Binder
IC50 (HLA A*0201; [2]): 342 µM

CC(C)C[C@H](NC(=O)[C@@H](NC(=O)[C@H](CCCNC(=N)N)NC(=O)[C@@H](NC(=O)[C@H](CC(N)=O)NC(=O)[C@H](CO)NC(=O)[C@H](CO)NC(=O)[C@H](CO)NC(=O)CNC(=O)[C@H](Cc1ccc(O)cc1)NC(=O)[C@H](CS)NC(=O)[C@H](CCC(N)=O)NC(=O)[C@H](Cc1ccc(O)cc1)NC(=O)[C@H](CCC(=O)O)NC(=O)[C@H](CCC(N)=O)NC(=O)[C@H](Cc1ccccc1)NC(=O)[C@H](CCCCN)NC(=O)[C@@H](N)CCCCN)[C@@H](C)O)C(C)C)C(=O)N[C@@H](CC(N)=O)C(=O)N[C@@H](CCC(=O)O)C(N)=O [Cluster C1] (H-KKFQEYQCYGSSSNTRVLNE-NH2)
IC50 (HLA-DRB1*0701; competition with fluorescent-labeled reference peptide, class II HLA monomers, 24-hours, test peptide 100,000 nM to 100 nM, time-resolved fluorescence, read-out: IC50, DRB1*0701): 36.7 µM
IC50 (HLA-DRB1*0101; competition with fluorescent-labeled reference peptide, class II HLA monomers, 24-hours, test peptide 100,000 nM to 100 nM, time-resolved fluorescence): 50.1 µM
IC50 (HLA-DRB1*1501; competition with fluorescent-labeled reference peptide, class II HLA monomers, 24-hours, test peptide 100,000 nM to 100 nM, time-resolved fluorescence, read-out: IC50, DRB1*1501): 1.77 µM

CC[C@H](C)[C@H](NC(C)=O)C(=O)N[C@@H](CCC(=O)O)C(=O)N[C@@H](CCC(N)=O)C(=O)N[C@@H](Cc1ccc(O)cc1)C(=O)N[C@@H](CC(C)C)C(=O)N[C@@H](CCCCN)C(=O)N[C@@H](CCCCN)C(=O)N[C@H](C(=O)N[C@@H](CCC(N)=O)C(=O)N[C@@H](Cc1ccc(O)cc1)C(=O)N[C@@H](CO)C(=O)N[C@@H](CC(C)C)C(=O)N[C@@H](CO)C(=O)N[C@H](C(=O)N[C@@H](CCC(=O)O)C(=O)N[C@@H](Cc1c[nH]c2ccccc12)C(=O)N[C@@H](CO)C(=O)N1CCC[C@H]1C(=O)N[C@@H](CS)C(N)=O)[C@@H](C)O)[C@@H](C)CC [ICS7] (Ac-IEQYLKKIQYSLSTEWSPC-NH2)
IC50 (HLA-DRB1*1301): 17.9 µM
IC50 (HLA-DRB1*0701): 2.76 µM
IC50 (HLA-DRB1*0401): 32.8 µM
IC50 (HLA-DRB1*0101): > 100 µM
IC50 (HLA-DRB1*0801): 6.09 µM
IC50 (HLA-DRB1*1501): 63.2 µM
median SI, IFN-γ recall responses [1]: 1.75
Percentage of donors demonstrating IFN-γ responses, DR1 ([1]; DR1 donors N=5, positive = Stimulation Index ≥1.5-fold above baseline, ICCS after 14-day co-culture, 5 µg/mL peptide): 60%
Percentage of donors demonstrating IL-2 responses, DR1 [1, 3]: 60%
Percentage of donors demonstrating IL-4 responses, DR1 [1, 3]: 20%
Percentage of donors demonstrating IL-10 responses, DR1 [1, 3]: 0%
Percentage of donors demonstrating TNF-α responses, DR1 [1, 3]: 40%
Percentage of donors demonstrating IFN-γ responses, DR3 ([1]; DR3 donors N=6, positive = Stimulation Index ≥1.5-fold above baseline, ICCS after 14-day co-culture, 5 µg/mL peptide): 67%
Percentage of donors demonstrating IL-2 responses, DR3 [1, 4]: 33%
Percentage of donors demonstrating IL-4 responses, DR3 [1, 4]: 0%
Percentage of donors demonstrating IL-10 responses, DR3 [1, 4]: 0%
Percentage of donors demonstrating TNF-α responses, DR3 [1, 4]: 50%
Percentage of donors demonstrating IFN-γ responses, DR4 ([1]; DR4 donors N=10, positive = Stimulation Index ≥1.5-fold above baseline, ICCS after 14-day co-culture, 5 µg/mL peptide): 70%
Percentage of donors demonstrating IL-2 responses, DR4 [1, 5]: 70%
Percentage of donors demonstrating IL-4 responses, DR4 [1, 5]: 0%
Percentage of donors demonstrating IL-10 responses, DR4 [1, 5]: 10%
Percentage of donors demonstrating TNF-α responses, DR4 [1, 5]: 80%
Percentage of donors demonstrating IFN-γ responses, DR7 ([1]; DR7 donors N=4, positive = Stimulation Index ≥1.5-fold above baseline, ICCS after 14-day co-culture, 5 µg/mL peptide): 75%
Percentage of donors demonstrating IL-2 responses, DR7 [1, 6]: 75%
Percentage of donors demonstrating IL-4 responses, DR7 [1, 6]: 0%
Percentage of donors demonstrating IL-10 responses, DR7 [1, 6]: 25%
Percentage of donors demonstrating TNF-α responses, DR7 [1, 6]: 75%
Percentage of donors demonstrating IFN-γ responses, DR8 ([1]; DR8 donors N=4, positive = Stimulation Index ≥1.5-fold above baseline, ICCS after 14-day co-culture, 5 µg/mL peptide): 75%
Percentage of donors demonstrating IL-2 responses, DR8 [1, 7]: 75%
Percentage of donors demonstrating IL-4 responses, DR8 [1, 7]: 0%
Percentage of donors demonstrating IL-10 responses, DR8 [1, 7]: 0%
Percentage of donors demonstrating TNF-α responses, DR8 [1, 7]: 100%
Percentage of donors demonstrating IFN-γ responses, DR9 ([1]; DR9 donors N=4, positive = Stimulation Index ≥1.5-fold above baseline, ICCS after 14-day co-culture, 5 µg/mL peptide): 50%
Percentage of donors demonstrating IL-2 responses, DR9 [1, 8]: 75%
Percentage of donors demonstrating IL-4 responses, DR9 [1, 8]: 0%
Percentage of donors demonstrating IL-10 responses, DR9 [1, 8]: 0%
Percentage of donors demonstrating TNF-α responses, DR9 [1, 8]: 50%
Percentage of donors demonstrating IFN-γ responses, DR11 ([1]; DR11 donors N=4, positive = Stimulation Index ≥1.5-fold above baseline, ICCS after 14-day co-culture, 5 µg/mL peptide): 25%
Percentage of donors demonstrating IL-2 responses, DR11 [1, 9]: 25%
Percentage of donors demonstrating IL-4 responses, DR11 [1, 9]: 0%
Percentage of donors demonstrating IL-10 responses, DR11 [1, 9]: 0%
Percentage of donors demonstrating TNF-α responses, DR11 [1, 9]: 25%
Percentage of donors demonstrating IFN-γ responses, DR13 ([1]; DR13 donors N=7, positive = Stimulation Index ≥1.5-fold above baseline, ICCS after 14-day co-culture, 5 µg/mL peptide): 86%
Percentage of donors demonstrating IL-2 responses, DR13 [1, 10]: 57%
Percentage of donors demonstrating IL-4 responses, DR13 [1, 10]: 0%
Percentage of donors demonstrating IL-10 responses, DR13 [1, 10]: 14%
Percentage of donors demonstrating TNF-α responses, DR13 [1, 10]: 71%
Percentage of donors demonstrating IFN-γ responses, DR15 ([1]; DR15 donors N=7, positive = Stimulation Index ≥1.5-fold above baseline, ICCS after 14-day co-culture, 5 µg/mL peptide): 43%
Percentage of donors demonstrating IL-2 responses, DR15 [1, 11]: 57%
Percentage of donors demonstrating IL-4 responses, DR15 [1, 11]: 0%
Percentage of donors demonstrating IL-10 responses, DR15 [1, 11]: 14%
Percentage of donors demonstrating TNF-α responses, DR15 [1, 11]: 57%

CC[C@H](C)[C@H](NC(=O)[C@H](CCCCN)NC(=O)[C@H](CC(C)C)NC(=O)[C@@H](N)Cc1ccc(O)cc1)C(=O)N[C@H](C(=O)N[C@@H](CCC(N)=O)C(=O)N[C@@H](CC(N)=O)C(=O)N[C@@H](CO)C(=O)N[C@@H](CC(C)C)C(=O)O)[C@@H](C)CC [Cluster 319_ICS5] (H-YLKIIQNSL-OH)
IC50 (HLA A*0201): 4.88 µM
